Tests used:
[1] = XTT cell viability of PHA-stimulated human PBMCs from healthy subjects; type: cell-based; conditions: PHA 20 μg/ml, read-out: maximal effect on viability of human PBMCs (decrease)
Method: FIG. 6 is a histogram depicting the effect of CX-5461 on viability of human PBMCs. Human PBMCs were plated in DMEM+10% FCS+P/S+Q and 20 μg/ml PHA (400,000 cell/well) in the presence of increased concentrations of CX-5461 (50-500 nM) for 72 hours. Cells cultured with PHA alone served as controls. After incubation cell viability was determined by XTT assay;
PBMCs ([…]) from normal, healthy, subjects were plated in the presence of PHA (20 μg/ml) with elevated concentrations of CX-5461 (50-500 nM) for 72 hours. Cells plated in absence of CX-5461 served as controls.

[2] = XTT cell viability assay of neuronal progenitor cells; type: cell-based, mice; conditions: read-out: decrease in NPC cell viability
Method: (§1) FIG. 8 is a histogram depicting the effects of CX-5461 on viability of neuronal progenitor cells (NPCs). Mouse NPCs were plated in neurospheres medium containing basic FGF and EGF at 20 ng/ml each (26,000 cell/well) in the presence of increased concentrations of CX-5461 (20-500 nM) for 72 hours. Cells cultured without CX-5461 served as controls. Following incubation cell viability was determined by XTT assay;
(§2) NPCs derived from the subventricular zone of the lateral ventricle of adult mice were allowed to proliferate in the presence of increased concentrations of CX-5461 (20 nM to 500 nM) for 72 hours, and cell viability was tested using XTT assay.

[3] = system: neural progenitor cells (NPCs); assay: as above; type: cell-based, mice; conditions: 20 nM, 72 hours
Method: as §1, §2

[4] = XTT cell viability assay of PHA-stimulated mouse splenocytes; type: cell-based
Method: FIG. 5 is a histogram depicting the effect of CX-5461 on viability of mouse splenocytes. Mouse splenocytes were plated in DMEM+10% FCS+P/S+Q and 10 μg/ml PHA (250,000 cell/well) in the presence of increased concentrations of CX-5461 (50-4000 nM) for 72 hours. Cells cultured with PHA alone served as controls. Following incubation cell viability was determined by XTT assay;
Cells viability was assessed by the 2,3 bis[2-Methoxy-4-nitro-5-sulfophenyl]-2H-tetrazolium-5-carboxanilide (XTT) as say (Biological Industries, Kibbutz Beit Hemeek, Israel) which measures the reduction of a tetrazolium component (XTT) into soluble formazan product by the mitochondria of viable cells. The intensity of the dye obtained is proportional to the number of metabolic active cells. Mouse splenocytes were plated in presence of PHA ([…]) and elevated concentrations of CX-5461 (50-4000 nM) for 72 hours. Cells plated in absence of CX-5461 served as controls. Following incubation, cell viability was measured by 2,3-bis-(2-methoxy-4-nitro-5-sulfophenyl)-2H-tetrazolium-5-carboxanilide (XTT) assay according to manufacturer's instructions (Biological Industries, Kibbutz Beit Hemeek, Israel). The intensity of the dye obtained is proportional to the number of metabolic active cells.

MOG-induced EAE [5] = assay: MOG-induced EAE, CX-5461 treatment initiated at clinical onset; type: in vivo
Method: (§3) EAE was induced in female C57BL/6 mice, 8 weeks of age, by subcutaneous immunization to the flank of emulsion (1:1 ratio volume/volume) containing […] peptide dissolved in phosphate-buffered saline (PBS) (at a concentration 2 mg/ml) and 0.5 mg Mycobacterium Tuberculosis H37Ra (Difco, Detroit, Mich.) in […] incomplete Freund's adjuvant (Sigma, St. Louis, Mo.). Pertussis toxin 200 ng/mouse (dissolved in […] PBS (List Biological Laboratories, Campbell, Calif.) was injected intra-peritoneal on the day of immunization and again two days later. Mice were monitored daily for clinical signs of EAE, scored as follows: 1-flaccid tail; 1.5—hind limb weakness; 2—paralyzed hind limbs and poor righting ability; 2.5—forelimb weakness, paralyzed hind limbs, paralyzed tail; 3—four limbs paralysis, inability to right; 4—quadriplegia; 5.0—moribund or death of the animal after preceding clinical disease. Animal reaching a score of 4 were scarified using CO2. Mice were kept in an SPF (Specific Pathogen Free) environment. Animal breeding and maintenance and all experimental protocols were performed in accordance with the Israeli Council for Animal Care guidelines and all experiments were approved by Sheba IRB Animal Care Ethical Committee.
EAE was induced in mice as described in Example 6, hereinabove.
EAE was induced in female C57/6J female mice as described above. Treatment with CX-5461 was administered orally in 0.2 ml of vehicle with the following concentrations: 12.5 mg/kg/d (n=11 mice) and 25.0 mg/kg/d (n=8 mice). Vehicle treated mice served as controls (n=9 mice). CX-5461 treatment was initiated from the day of disease onset (score 0.5 or 1.0) for the following 14 days. The day of disease onset was evaluated for each animal daily.

MOG-induced EAE [6] = assay: MOG-induced EAE, CX-5461 prophylactic treatment initiated at induction phase; type: in vivo; conditions: for Cumulative disease score / Disease onset / Maximal clinical score: 9 days
Method: as §3
EAE was induced in female C57Bl/6J female mice (8 weeks old) as described above. Treatment with CX-5461 was initiated on the day of induction and continued till the clinical signs of EAE appeared in the control animal group (In 2 out of the 7 mice clinical signs of EAE appeared). CX-5461 was administered orally to each animal; the following doses of CX-5461 in 0.2 ml of vehicle were used: 12.5 mg/kg (n=6 mice), 25 mg/kg (n=6 mice) and 50 mg/kg (n=7 mice) in 0.2 ml of vehicle. Vehicle treated mice served as controls (n=7 mice). Treatment continued for 9 days post induction, until the first sign of EAE (grade 1) appeared in the vehicle animal group (in 2 out of 7 mice). Mice were monitored daily for clinical signs of EAE up to 42 days post induction.

[7] = 12.5 mg/kg/day oral from disease onset, 14 days
[8] = 25 mg/kg/day oral from disease onset
[9] = 12.5 mg/kg/day oral from day of EAE induction
[10] = 25.0 mg/kg/day oral from day of EAE induction

Cc1cnc(CNC(=O)c2c(=O)c3ccc(N4CCCN(C)CC4)nc3n3c2sc2ccccc23)cn1 [CX-5461, 2-(4-methyl-1,4-diazepan-1-yl)-N-((5-methylpyrazin-2-yl)methyl)-5-oxo-5H-benzo[4,5]thiazolo[3,2-a][1,8]naphthyridine-6-carboxamide]
cytotoxicity at 72 h, 50 nM [1]: 35%
cytotoxicity at 72 h, 50 nM ([2]; mouse, 50 nM): 30%
cytotoxicity at 72 h ([2]; mouse, 100, 250 and 500 nM): ~50%
effect on NPCs viability [3]: no effect
cytotoxicity at 72 h, 50 nM ([4]; 50 nM, read-out: decrease in cell viability of splenocyte cells): 27%
cytotoxicity at 72 h ([4]; 500 nM and higher concentrations, read-out: decrease in cell viability of splenocyte cells (maximal)): 97 to 100%
Cumulative disease score (MOG-induced EAE [5]; [7]): 18.59 ± 4.26
Maximal EAE score (MOG-induced EAE [5]; [7]): 2 ± 0.47
survival (MOG-induced EAE [5]; [7]): all the animals survived
EAE score (MOG-induced EAE [5]; [8]): 0.88±0.18
toxic effects (MOG-induced EAE [5]; [8]): change in their fur color and brightness and loss of weight
time to death (toxic effects) (MOG-induced EAE [5]; 25 mg/kg/day oral from disease onset, all mice died): 10.1 ± 0.5 days
Cumulative disease score (MOG-induced EAE [6]; [9]): 16.25 ± 3.94
Disease onset (MOG-induced EAE [6]; [9]): 20.83 ± 1.36 days p.i.
Maximal clinical score (MOG-induced EAE [6]; [9]): 2.83 ± 0.49
Cumulative disease score (MOG-induced EAE [6]; [10]): 14.1 ± 3.5
Disease onset (MOG-induced EAE [6]; [10]): 23.1 ± 1.2 days p.i.
Maximal clinical score (MOG-induced EAE [6]; [10]): 3.3 ± 1.0
time to death (toxicity) (MOG-induced EAE [6]; 50 mg/kg/day oral, days of treatment post-induction, mean): 7.6 ± 0.5 days
toxic signs (MOG-induced EAE [6]; 50 mg/kg/day oral, since day 5 of treatment): change in the color and brightness of their fur, loss of weight and change in behavior
delay of EAE onset versus vehicle-control group (MOG-induced EAE [6]; all CX-5461 treated groups, not dependent on concentration): 10 days

— patent US20140086839A1, “QUINOLONE ANALOGS FOR TREATING AUTOIMMUNE DISEASES” (Tel HaShomer Medical Research Infrastructure and Services …, priority 2011, published 2014)
